Experimental data published in patent US9096643B2, “Cell-protective peptides and uses thereof” (priority 2010, dated 2015).

Tests used:
human iPS cells 0901B = assay: iPS cell apoptosis, Apo-ONE Caspase 3/7; type: cell-based; settings: 50 μM, five passages, vs PBS and scrambled peptide, FIG. 12B
Procedure: (§1) Human iPS cells were treated for 5 passages and levels of apoptosis were measured 3 days after passaging using the Apo-ONE Homogeneous Caspase assay (Promega) according to manufacturers instructions. The levels of Caspase 3/7 activation were proportional to levels of fluorescence. All statistical analyses were performed using the two-tailed student t-test assuming unequal variance. p<0.05 denote statistical significance.
(§2) IPS cells, BJ1D or 0901B, were treated with 5 μM or 50 μM of QHREDGS peptide, or 50 μM DGQESHR scrambled peptide in PBS with a PBS treated control for five passages and assayed for apoptosis using the APO One Caspase 3/7 system. The levels of Caspase 3/7 activation are proportional to fluorescence. […] Solid bars represent a statistical significance, p<0.05.

human iPS cells BJ1D = assay: iPS cell apoptosis, Apo-ONE Caspase 3/7; type: cell-based; settings: 50 μM, five passages, vs PBS and scrambled peptide, FIG. 12A
Procedure: as §1, §2

Which “Caspase 3/7 activity” value (human iPS cells 0901B) does the source give for QHREDGS (angiopoietin 1 peptide) here?
The value was “significant reduction of Caspase 3/7 activity”.

What about the “Caspase 3/7 activity” value (human iPS cells BJ1D) of the same substance?
Its value is “significant reduction of Caspase 3/7 activity”.
